From ChEMBL document CHEMBL1201862, “PubChem BioAssay data set” (2004)
Calls of active or inactive are those of the source.

How the values were obtained:
[1] = molecular target: T1, Cytochrome P450 3A4 (Homo sapiens, UniProt P08684)
[2] = molecular target: Cytochrome P450 2C9 (Homo sapiens, UniProt P11712)
[3] = molecular target: T2, Short transient receptor potential channel 4 (Mus musculus, UniProt Q9QUQ5); assay: mouse TRPC4 channel activators, dose response, cell-based, HEK293 TRPC4/mu-opioid, Fluo-4 calcium (AID 434937); format: functional
T2 sequence (Q9QUQ5 whole entry): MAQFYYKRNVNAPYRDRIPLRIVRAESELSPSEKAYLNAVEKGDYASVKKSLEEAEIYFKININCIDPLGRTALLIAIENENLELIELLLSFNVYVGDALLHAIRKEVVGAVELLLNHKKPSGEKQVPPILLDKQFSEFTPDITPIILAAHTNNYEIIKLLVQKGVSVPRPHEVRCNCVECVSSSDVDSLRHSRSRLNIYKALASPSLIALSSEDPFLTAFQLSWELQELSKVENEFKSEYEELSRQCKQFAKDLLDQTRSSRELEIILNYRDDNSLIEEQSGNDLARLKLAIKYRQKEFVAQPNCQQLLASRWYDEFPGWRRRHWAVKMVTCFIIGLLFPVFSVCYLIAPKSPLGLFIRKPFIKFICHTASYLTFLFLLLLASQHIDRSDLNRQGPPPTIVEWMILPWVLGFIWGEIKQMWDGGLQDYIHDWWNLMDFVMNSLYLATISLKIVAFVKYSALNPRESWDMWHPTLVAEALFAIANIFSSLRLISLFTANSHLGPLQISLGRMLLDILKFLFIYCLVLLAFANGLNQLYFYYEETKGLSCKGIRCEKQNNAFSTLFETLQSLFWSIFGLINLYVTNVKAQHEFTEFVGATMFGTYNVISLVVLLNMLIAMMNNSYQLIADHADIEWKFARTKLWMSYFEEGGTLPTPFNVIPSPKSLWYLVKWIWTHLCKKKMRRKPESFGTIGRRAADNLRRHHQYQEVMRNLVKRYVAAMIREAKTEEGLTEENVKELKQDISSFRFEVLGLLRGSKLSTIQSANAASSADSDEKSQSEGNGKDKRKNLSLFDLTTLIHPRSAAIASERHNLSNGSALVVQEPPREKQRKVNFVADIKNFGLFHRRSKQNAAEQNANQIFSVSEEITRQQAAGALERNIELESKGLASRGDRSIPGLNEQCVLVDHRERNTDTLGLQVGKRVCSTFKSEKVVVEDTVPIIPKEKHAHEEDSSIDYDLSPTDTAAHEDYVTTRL

[4] = molecular target: T1, Cytochrome P450 3A4; details: Potency
[5] = molecular target: T3, Caspase-6 (Homo sapiens, UniProt P55212); assay: human caspase-6 inhibitors, dose response, biochemical, VEID-R110 fluorescence, cherry-pick (AID 720632)
T3 sequence (P55212 whole entry): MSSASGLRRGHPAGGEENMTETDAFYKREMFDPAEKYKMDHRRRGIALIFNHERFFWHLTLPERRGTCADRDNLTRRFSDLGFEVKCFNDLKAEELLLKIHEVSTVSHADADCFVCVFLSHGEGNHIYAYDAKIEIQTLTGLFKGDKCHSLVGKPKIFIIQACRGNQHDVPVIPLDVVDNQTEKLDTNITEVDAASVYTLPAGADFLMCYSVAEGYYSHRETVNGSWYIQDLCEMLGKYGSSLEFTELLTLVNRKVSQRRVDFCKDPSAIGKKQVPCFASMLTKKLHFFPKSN

[6] = molecular target: T4, Zinc finger protein mex-5 (Caenorhabditis elegans, UniProt Q9XUB2); assay: MEX-5/TCR-2 RNA interaction inhibitors, dose response, biochemical, C. elegans, fluorescence polarization (AID 1960)
T4 sequence (Q9XUB2 whole entry): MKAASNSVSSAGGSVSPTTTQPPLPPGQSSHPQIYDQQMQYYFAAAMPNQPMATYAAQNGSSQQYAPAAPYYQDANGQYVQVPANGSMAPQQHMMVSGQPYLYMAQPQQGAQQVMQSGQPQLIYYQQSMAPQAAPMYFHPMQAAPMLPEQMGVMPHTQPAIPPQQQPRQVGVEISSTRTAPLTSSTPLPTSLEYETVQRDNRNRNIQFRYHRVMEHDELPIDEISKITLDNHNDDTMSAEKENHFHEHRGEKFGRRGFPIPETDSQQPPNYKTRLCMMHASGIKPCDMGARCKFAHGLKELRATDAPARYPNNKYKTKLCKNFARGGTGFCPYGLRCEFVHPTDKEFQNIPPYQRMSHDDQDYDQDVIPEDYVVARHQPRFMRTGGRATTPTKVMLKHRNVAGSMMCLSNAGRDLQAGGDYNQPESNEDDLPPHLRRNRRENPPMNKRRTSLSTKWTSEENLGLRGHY

[7] = molecular target: T5, RNA-binding protein pos-1 (Caenorhabditis elegans, UniProt G5EF15); assay: inhibitors of POS-1/mex-3 RNA binding, dose response, biochemical, fluorescence polarization (AID 1964);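 note: purified POS-1 fused to maltose binding protein made in E. coli; potency of compounds blocking POS-1 binding to fluorescent RNA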
T5 sequence (G5EF15 whole entry): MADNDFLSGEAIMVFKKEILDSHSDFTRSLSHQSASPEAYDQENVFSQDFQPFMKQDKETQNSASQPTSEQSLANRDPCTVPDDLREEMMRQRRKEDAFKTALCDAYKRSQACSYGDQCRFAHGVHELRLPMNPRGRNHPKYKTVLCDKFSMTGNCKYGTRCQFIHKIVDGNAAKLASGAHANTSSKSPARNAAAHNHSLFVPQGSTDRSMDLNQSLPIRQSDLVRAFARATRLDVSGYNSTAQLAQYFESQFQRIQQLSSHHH

[8] = molecular target: T6, Protein skinhead-1 (Caenorhabditis elegans, UniProt P34707); format: functional
T6 sequence (P34707 whole entry): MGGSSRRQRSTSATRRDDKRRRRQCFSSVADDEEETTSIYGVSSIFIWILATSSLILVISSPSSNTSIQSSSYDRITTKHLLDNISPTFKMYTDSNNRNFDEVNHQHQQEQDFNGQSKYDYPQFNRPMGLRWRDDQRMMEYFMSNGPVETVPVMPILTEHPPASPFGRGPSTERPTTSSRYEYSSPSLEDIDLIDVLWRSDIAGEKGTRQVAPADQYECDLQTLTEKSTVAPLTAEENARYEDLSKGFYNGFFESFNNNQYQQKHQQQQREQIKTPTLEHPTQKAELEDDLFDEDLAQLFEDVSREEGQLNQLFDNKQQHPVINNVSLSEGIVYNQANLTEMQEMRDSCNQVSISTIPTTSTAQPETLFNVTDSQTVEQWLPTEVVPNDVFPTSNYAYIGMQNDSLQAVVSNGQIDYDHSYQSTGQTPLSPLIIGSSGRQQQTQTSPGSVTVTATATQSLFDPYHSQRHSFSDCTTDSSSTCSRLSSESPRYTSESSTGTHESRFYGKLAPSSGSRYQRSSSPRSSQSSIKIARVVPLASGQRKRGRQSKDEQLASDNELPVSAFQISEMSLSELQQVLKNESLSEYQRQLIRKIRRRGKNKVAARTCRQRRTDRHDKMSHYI

[9] = molecular target: T7, Cytochrome P450 1A2 (Homo sapiens, UniProt P05177);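 note: PubChem cytochrome P450 panel assay, CYP1A2 panel member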
T7 sequence (P05177 whole entry): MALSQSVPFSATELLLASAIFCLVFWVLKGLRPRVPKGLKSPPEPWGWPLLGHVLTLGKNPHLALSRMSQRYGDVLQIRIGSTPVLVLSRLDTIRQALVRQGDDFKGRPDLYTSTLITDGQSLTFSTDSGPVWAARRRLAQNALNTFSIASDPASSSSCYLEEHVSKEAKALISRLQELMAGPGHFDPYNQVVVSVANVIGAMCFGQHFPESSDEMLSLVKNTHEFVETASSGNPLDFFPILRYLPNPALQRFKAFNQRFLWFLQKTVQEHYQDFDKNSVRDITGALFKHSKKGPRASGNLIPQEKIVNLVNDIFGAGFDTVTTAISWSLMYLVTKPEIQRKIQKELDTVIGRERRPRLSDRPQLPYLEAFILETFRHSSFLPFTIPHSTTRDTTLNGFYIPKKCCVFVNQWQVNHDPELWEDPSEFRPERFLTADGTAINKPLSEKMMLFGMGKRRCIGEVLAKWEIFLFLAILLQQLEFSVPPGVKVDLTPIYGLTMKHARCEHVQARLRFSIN

[10] = molecular target: Cytochrome P450 2C19 (Homo sapiens, UniProt P33261); assay: Cytochrome panel assay with activity outcomes. Panel member name: p450-cyp2c19 Compounds with AC50 equal or less than 10 uM are considered active; format: functional
Sequence of Cytochrome P450 2C19 (P33261 whole entry): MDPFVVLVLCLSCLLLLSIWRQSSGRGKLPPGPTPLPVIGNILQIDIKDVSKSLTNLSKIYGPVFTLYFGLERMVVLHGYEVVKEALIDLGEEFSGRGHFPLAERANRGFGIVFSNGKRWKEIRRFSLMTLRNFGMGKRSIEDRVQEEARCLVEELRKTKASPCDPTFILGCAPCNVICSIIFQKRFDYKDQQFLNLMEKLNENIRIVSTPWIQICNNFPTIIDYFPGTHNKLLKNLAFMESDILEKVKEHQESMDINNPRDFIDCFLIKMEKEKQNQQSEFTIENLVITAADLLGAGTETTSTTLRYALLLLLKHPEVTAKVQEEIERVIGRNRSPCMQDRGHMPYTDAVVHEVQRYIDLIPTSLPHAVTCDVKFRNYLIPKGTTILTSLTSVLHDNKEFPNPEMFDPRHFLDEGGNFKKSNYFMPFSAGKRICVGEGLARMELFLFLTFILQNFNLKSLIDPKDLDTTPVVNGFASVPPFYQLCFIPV

[11] = molecular target: Genome polyprotein (dengue virus type 2, UniProt P29990); assay: Dengue-2 NS5 methyltransferase inhibitors, primary screen, biochemical, confirmation dose response (AID 588689); format: functional
Sequence of Genome polyprotein (P29990 2492-3391 limits assumed): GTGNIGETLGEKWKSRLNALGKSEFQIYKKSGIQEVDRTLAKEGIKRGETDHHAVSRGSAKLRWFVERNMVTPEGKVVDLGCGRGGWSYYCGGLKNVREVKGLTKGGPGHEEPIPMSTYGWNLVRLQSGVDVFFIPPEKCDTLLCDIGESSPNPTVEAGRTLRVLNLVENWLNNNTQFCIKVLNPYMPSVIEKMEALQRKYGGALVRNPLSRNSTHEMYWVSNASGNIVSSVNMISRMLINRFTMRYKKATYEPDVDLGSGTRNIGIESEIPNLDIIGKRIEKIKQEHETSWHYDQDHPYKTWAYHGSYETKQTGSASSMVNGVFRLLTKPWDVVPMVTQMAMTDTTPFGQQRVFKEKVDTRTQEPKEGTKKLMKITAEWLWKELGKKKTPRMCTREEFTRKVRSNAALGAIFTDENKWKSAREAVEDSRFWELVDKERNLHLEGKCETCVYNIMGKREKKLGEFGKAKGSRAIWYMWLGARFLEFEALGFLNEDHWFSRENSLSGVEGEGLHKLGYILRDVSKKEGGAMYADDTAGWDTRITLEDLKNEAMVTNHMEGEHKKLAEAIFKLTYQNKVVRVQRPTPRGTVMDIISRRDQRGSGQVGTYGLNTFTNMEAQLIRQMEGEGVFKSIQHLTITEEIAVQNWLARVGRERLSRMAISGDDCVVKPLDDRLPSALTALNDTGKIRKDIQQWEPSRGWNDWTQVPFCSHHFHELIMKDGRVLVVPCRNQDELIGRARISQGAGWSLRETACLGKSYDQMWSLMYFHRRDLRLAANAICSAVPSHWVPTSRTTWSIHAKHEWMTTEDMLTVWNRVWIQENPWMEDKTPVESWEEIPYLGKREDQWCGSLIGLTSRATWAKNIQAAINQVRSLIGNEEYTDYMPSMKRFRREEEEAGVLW

[12] = Luminescence Cell-Based Dose Response HTS to Identify Activators of Luciferase Translation or Activity in H4 […] Cells. [Related pubchem assays: 1829 (Project Summary), 1814 (Primary HTS)]; format: functional
[13] = Luminescence Cell-Based Dose Confirmation HTS to Identify Activators of 5'UTR Stem-Loop Driven Alpha-Synuclein mRNA Translation in H4 Neuroglioblastoma Cells. [Related pubchem assays: 1829 (Project Summary), 1814 (Primary HTS)]; format: functional
[14] = test system: H4; assay: Luminescence Cell-Based Dose Response HTS to Identify Activators of 5'UTR Stem-Loop Driven Prion Protein mRNA Translation in H4 Neuroglioblastoma Cells. [Related pubchem assays: 1829 (Project Summary), 1814 (Primary HTS)]; format: functional; details: Homo sapiens

Sequence of Cytochrome P450 2C9 (P11712 whole entry): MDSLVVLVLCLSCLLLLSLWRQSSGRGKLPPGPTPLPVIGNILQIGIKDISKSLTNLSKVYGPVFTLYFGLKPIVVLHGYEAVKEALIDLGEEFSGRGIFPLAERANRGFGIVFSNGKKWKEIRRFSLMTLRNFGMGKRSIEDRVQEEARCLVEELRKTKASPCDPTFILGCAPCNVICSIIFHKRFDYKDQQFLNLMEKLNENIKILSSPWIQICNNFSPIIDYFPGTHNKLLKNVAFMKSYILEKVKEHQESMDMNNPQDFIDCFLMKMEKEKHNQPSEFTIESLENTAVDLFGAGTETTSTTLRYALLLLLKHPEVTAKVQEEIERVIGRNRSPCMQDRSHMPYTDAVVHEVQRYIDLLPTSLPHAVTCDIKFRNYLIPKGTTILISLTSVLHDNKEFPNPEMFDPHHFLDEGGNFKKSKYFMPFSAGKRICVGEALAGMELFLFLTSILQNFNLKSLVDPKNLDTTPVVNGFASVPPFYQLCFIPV
T1 sequence (P08684 whole entry): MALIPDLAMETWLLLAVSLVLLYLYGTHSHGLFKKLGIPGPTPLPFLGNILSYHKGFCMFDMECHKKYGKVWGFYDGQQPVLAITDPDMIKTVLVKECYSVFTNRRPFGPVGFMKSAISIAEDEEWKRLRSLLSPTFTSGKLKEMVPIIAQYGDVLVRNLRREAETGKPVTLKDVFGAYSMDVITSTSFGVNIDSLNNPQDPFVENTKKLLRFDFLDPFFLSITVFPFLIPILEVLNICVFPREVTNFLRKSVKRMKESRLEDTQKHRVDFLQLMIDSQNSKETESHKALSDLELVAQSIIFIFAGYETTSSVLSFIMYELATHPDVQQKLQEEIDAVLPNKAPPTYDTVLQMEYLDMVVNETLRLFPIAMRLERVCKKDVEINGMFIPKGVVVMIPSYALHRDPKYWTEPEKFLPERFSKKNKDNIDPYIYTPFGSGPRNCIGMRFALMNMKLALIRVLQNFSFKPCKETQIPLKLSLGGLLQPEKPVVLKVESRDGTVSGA

CCN(CC)CCN1C(=O)C(O)=C(C(=O)c2ccc(OC)cc2)C1c1cccs1 (stereo unspecified)
AC50 [1]: 17.8 µM (inconclusive) | AC50 [2]: inconclusive

COc1cccc(C(=O)OC2CCCN(C)C2)c1 (stereo unspecified)
EC50 [3]: 0.376 µM (active)

O=C1C=C2C=CC3C[C@@]2(O1)C1CCCCN31 (stereo partly specified)
AC50 [4]: 31.6 µM (inconclusive)

O=C(O)CCC(=O)NCc1ccc2[nH]c3c(c2c1)CCCC3
AC50 [5]: 25.6 µM (active) | EC50 [6]: 112 µM (active) | EC50 [7]: 82.1 µM (active)

COc1ccc(/C=C(\C#N)C(=O)NCC2CCCO2)cc1OC (stereo unspecified)
IC50 [8]: > 100 µM (inactive) | EC50 [6]: > 300 µM (not active) | EC50 [7]: > 300 µM (not active) | AC50 [9]: 22.4 µM (inconclusive) | AC50 [2]: inconclusive

COc1ccc(Br)cc1/C=C/C(=O)Nc1c(C)cccc1C
AC50 [9]: 22.4 µM (inconclusive) | AC50 [2]: inconclusive

Cc1csc2c(N3CCN(C(=O)Nc4ccccc4)CC3)ncnc12
EC50 [3]: 1.68 µM (active)

Cc1ccc(NC(=S)NC2CC3CCC(C2)N3Cc2ccco2)c(C)c1 (stereo unspecified)
EC50 [3]: 5.96 µM (active)

CNc1ccnc(-c2c(C)noc2C)n1
AC50 [1]: 39.8 µM (inconclusive) | AC50 [10]: inconclusive | AC50 [2]: inconclusive

CC1=NN(c2ccc(Br)cc2)C(=O)/C1=C/c1ccc(-c2ccccc2C(=O)O)o1
IC50 [11]: 30 µM (active)

COc1ccc(-c2ccccc2C2NC(C(=O)O)CCC2C)cc1 (stereo unspecified)
AC50 [4]: 5.01 µM (inconclusive)

Cc1c(N=C=O)cccc1N=C=O
AC50 [4]: 15.8 µM (inconclusive)

CC(=O)N(C)c1ccc(NC(=O)Cc2cccs2)cc1
AC50 [5]: 31.8 µM (active)

c1ccc(-c2ccc(CN3C[C@@H]4C(c5ccccc5)C5(c6cccnc6)CC4(C5)[C@H]3c3ccccc3)cc2)cc1 (stereo partly specified)
AC50 [4]: 15.8 µM (inconclusive)

CCOc1cc(OCC)c(C(C)=O)cc1OCC
AC50 [4]: 15.8 µM (inconclusive)

COc1cc(/C=C2/C(=N)N3C(c4ccccc4)=CSC3=NC2=O)ccc1OCC(=O)O
IC50 [11]: > 100 µM (active) | EC50 [12]: 12.7 µM (active) | EC50 [13]: 19.6 µM (active) | EC50 [14]: > 120 µM (not active)

COCCn1nnnc1C(c1cc2ccc(OC)cc2nc1O)N1CCN(C2CCCCC2)CC1 (stereo unspecified)
EC50 [3]: 3.76 µM (active)

CSc1ccccc1NC(=O)CN(C)C(=O)COc1cccc2cccnc12
AC50 [5]: 29.5 µM (active)

O=C(O)C/C(=C\c1cc(Cl)c2c(c1)OCO2)c1nc2ccccc2s1
AC50 [5]: 7.56 µM (active)

COc1cc2c(Cc3c4c5c(cc(OC)c(OC)c5c5c(OC)c(OC)ccc35)CCN4C)c3c4c(cc(OC)c(OC)c4c2cc1OC)CCN3C
AC50 [4]: 3.16 µM (inconclusive)

CC(C)(C)C(=O)NNC(=O)CCCOc1ccc(Cl)cc1Cl
AC50 [9]: 25.1 µM (inconclusive) | AC50 [2]: inconclusive

Cc1nc(NC2CCCCC2)c2nc(-c3ccccc3)n(CCCN(C)C)c2n1
AC50 [4]: 20 µM (inconclusive)

COC(=O)CNC(=O)[C@@]1(C)C=C[C@@H](Cc2ccccc2)N1C(C)=O
AC50 [4]: 20 µM (inconclusive)

O=Nc1ccc(Nc2ccccc2)cc1
AC50 [4]: 20 µM (inconclusive)

COC(=O)c1cccc(NC(=O)/C=C/c2cccc([N+](=O)[O-])c2)c1
AC50 ([10]; read-out: AC50): 5.01 µM (inconclusive) | AC50 [9]: 2.24 µM (inconclusive) | AC50 [2]: inconclusive

CCCCN(CC)CCCNC(=O)c1csc2c1CCCCC2
EC50 [3]: 1.19 µM (active)

CSc1nc(O)c(C(c2ccc(OC(C)C)cc2)c2c(O)nc(SC)nc2O)c(O)n1
IC50 [11]: 32.9 µM (active)

CN(C)C(CNC(=O)/C=C/c1cccc(Cl)c1)c1ccccc1 (stereo unspecified)
EC50 [3]: 0.133 µM (active)

COC(=O)CC1[C@@]2(C)C[C@]34OC5(C)OC6(C7CC(=O)OC(c8ccoc8)[C@]7(C)CCC6(O5)[C@]13C)C(OC(C)=O)[C@]4(OC(C)=O)C2OC(C)=O (stereo partly specified)
AC50 [4]: 20 µM (inconclusive)

CN(C)c1ccc2c(c1)[C@@H]1C[C@@H](CC(=O)N3CCOCC3)O[C@@H](CO)[C@@H]1O2
AC50 [5]: 42.4 µM (active)
